Data from patent publication US12336981B2, “Compounds and compositions for the inhibition of NAMPT” (Valo Health, Inc., priority 2010, dated 2025).
Like-named read-outs stand apart in the source and are kept apart here.

Legend:
A2780 cells = assay: In-vitro cell proliferation assay (SRB), A2780 cells; type: cell-based; conditions: Homo sapiens, A2780, 72 h, A2780 cells, 72 hours, read-out: A2780 IC50
Procedure, shortened: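 Proliferation is assessed by sulforhodamine B staining following a 72-hour incubation with compound dilutions containing 0.1% DMSO.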

NAMPT = target: T1, NAMPT (Homo sapiens, UniProt P43490); assay: Biochemical inhibition assay: NAMPT enzymatic reaction, NMN quantified by mass spectrometry; conditions: read-out: Biochem IC50
T1 construct: His tag; host or cells: E. coli
Procedure, shortened: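 Inhibition of E. coli-expressed His-tagged human NAMPT, measured as NMN formation by mass spectrometry after a 30 min room-temperature reaction containing 1 μM NAM, 100 μM PRPP and 2.5 mM ATP.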

T1 sequence (P43490 whole entry): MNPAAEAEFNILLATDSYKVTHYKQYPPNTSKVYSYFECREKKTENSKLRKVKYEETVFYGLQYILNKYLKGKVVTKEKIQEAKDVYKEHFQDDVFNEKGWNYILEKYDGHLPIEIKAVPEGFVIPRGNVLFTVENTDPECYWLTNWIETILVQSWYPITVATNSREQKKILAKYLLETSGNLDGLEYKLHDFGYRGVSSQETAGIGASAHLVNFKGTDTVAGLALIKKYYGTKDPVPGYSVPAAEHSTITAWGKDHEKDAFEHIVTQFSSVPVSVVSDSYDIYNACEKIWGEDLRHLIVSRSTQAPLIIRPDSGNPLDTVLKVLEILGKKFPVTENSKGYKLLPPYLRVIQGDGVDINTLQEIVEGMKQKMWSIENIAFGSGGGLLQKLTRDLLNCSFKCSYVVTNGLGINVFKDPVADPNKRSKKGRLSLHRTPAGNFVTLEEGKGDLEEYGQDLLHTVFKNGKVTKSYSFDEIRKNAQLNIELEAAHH

Compound | IC50 (A2780 cells; SRB) [µM] | IC50 (NAMPT; NAMPT enzymatic assay) [µM] | IC50 (NAMPT; NAMPT enzymatic reaction) [µM] | IC50 (A2780 cells; SRB assay) [µM]
O=C(NCc1ccc(S(=O)(=O)c2ccccc2OC(F)(F)F)cc1)c1cnc2nccn2c1 [N-[(4-{[2-(trifluoromethoxy)benzene]sulfonyl}phenyl)methyl]imidazo[1,2-a]pyrimidine-6-carboxamide] | 0.0115 | 0.0024 | – | –
COc1cncc(S(=O)(=O)c2ccc(CNC(=O)c3cnc4[nH]ncc4c3)cc2)c1 [N-{[4-(5-methoxypyridine-3-sulfonyl)phenyl]methyl}-1H-pyrazolo[3,4-b]pyridine-5-carboxamide] | 0.0167 | 0.0414 | – | –
O=C(NCc1ccc(S(=O)(=O)c2c(F)cccc2Cl)cc1)c1ccc2nccn2c1 | 0.0766 | – | 0.172 | –
O=C(NCc1ccc(S(=O)(=O)c2cccc(F)c2)cc1)c1cc2ccncc2s1 [N-({4-[(3-fluorobenzene)sulfonyl]phenyl}methyl)thieno[2,3-c]pyridine-2-carboxamide] | – | – | 0.003 | 0.0033
CC(C)c1cccc(S(=O)(=O)c2ccc(CNC(=O)c3cnc4nccn4c3)cc2)c1 | 0.0053 | 0.0029 | – | –
COc1ccc(S(=O)(=O)c2ccc(CNC(=O)c3cnc4nccn4c3)cc2)cc1C | 0.0055 | – | 0.0022 | –
CCOc1cccc(S(=O)(=O)c2ccc(CNC(=O)c3cc4ccncc4o3)cc2)c1 [N-({4-[(3-ethoxybenzene)sulfonyl]phenyl}methyl)furo[2,3-c]pyridine-2-carboxamide] | 0.011 | – | 0.0068 | –
Cn1ncc2cccc(S(=O)(=O)c3ccc(CNC(=O)c4cc5ccncc5s4)cc3)c21 [N-{[4-(1-methyl-1H-indazole-7-sulfonyl)phenyl]methyl}thieno[2,3-c]pyridine-2-carboxamide] | 0.0104 | 0.0045 | – | –
O=C(NCc1ccc(S(=O)(=O)c2ccccc2Oc2ccccc2)cc1)c1cc2ccncc2s1 [N-({4-[(2-phenoxybenzene)sulfonyl]phenyl}methyl)thieno[2,3-c]pyridine-2-carboxamide] | – | – | 0.011 | 0.0697
O=C(NCc1ccc(S(=O)(=O)c2cccc3c2Oc2ccccc2S3)cc1)c1ccc2nccn2c1 [N-{[4-(phenoxathiine-4-sulfonyl)phenyl]methyl}imidazo[1,2-a]pyridine-6-carboxamide] | 0.00218 | 0.00215 | – | –
CS(=O)(=O)c1cccc(S(=O)(=O)c2ccc(CNC(=O)c3cc4ccncc4o3)cc2)c1 | 0.0068 | – | 0.006 | –
O=C(NCc1ccc(S(=O)(=O)c2cnc(N3CCCC3)s2)cc1)c1cc2ccncc2s1 [N-({4-[2-(pyrrolidin-1-yl)-1,3-thiazole-5-sulfonyl]phenyl}methyl)thieno[2,3-c]pyridine-2-carboxamide] | 0.0007 | 0.0015 | – | –
COc1cc(Cl)cc(S(=O)(=O)c2ccc(CNC(=O)c3cc4cnccc4[nH]3)cc2)c1 [N-({4-[(3-chloro-5-methoxybenzene)sulfonyl]phenyl}methyl)-1H-pyrrolo[3,2-c]pyridine-2-carboxamide] | 0.0025 | – | 0.017 | –
O=C(NCc1ccc(S(=O)(=O)c2cnn(-c3cccc(Cl)c3)c2)cc1)c1ccc2nccn2c1 [N-({4-[1-(3-chlorophenyl)-1H-pyrazole-4-sulfonyl]phenyl}methyl)imidazo[1,2-a]pyridine-6-carboxamide] | 0.0064 | 0.014 | – | –
N#Cc1ccc(S(=O)(=O)c2ccc(CNC(=O)c3cnc4[nH]ncc4c3)cc2)cc1 [N-({4-[(4-cyanobenzene)sulfonyl]phenyl}methyl)-1H-pyrazolo[3,4-b]pyridine-5-carboxamide] | 0.0208 | – | 0.0284 | –
CC(C)Oc1cc(F)ccc1S(=O)(=O)c1ccc(CNC(=O)c2cc3ccncc3s2)cc1 | 0.0016 | 0.005 | – | –
O=C(NCc1ccc(S(=O)(=O)c2ccc(Cl)cc2C(F)(F)F)cc1)c1cc2cnccc2[nH]1 | 0.0174 | 0.0422 | – | –
O=C(NCc1ccc(S(=O)(=O)c2cc(Cl)cc(CO)c2)cc1)c1ccc2nccn2c1 | 0.0014 | 0.0058 | – | –
O=C(NCc1ccc(S(=O)(=O)c2ccccc2)cc1)c1ccc2cnccc2c1 [N-{[4-(benzenesulfonyl)phenyl]methyl}isoquinoline-6-carboxamide] | – | – | 16.1 | 21.3
O=C(NCc1ccc(S(=O)(=O)c2ccc(-c3ccccc3)cc2)cc1)c1cc2ccncc2o1 [N-({4-[(4-phenylbenzene)sulfonyl]phenyl}methyl)furo[2,3-c]pyridine-2-carboxamide] | 0.0069 | – | 0.0037 | –
O=C(NCc1ccc(S(=O)(=O)c2cccc(-c3ccccc3)c2)cc1)c1ccc2ncsc2c1 [N-({4-[(3-phenylbenzene)sulfonyl]phenyl}methyl)-1,3-benzothiazole-6-carboxamide] | 1 to 10 | – | 0.0185 | –
O=C(NCc1ccc(S(=O)(=O)c2ccc3c(c2)OCO3)cc1)c1ccc2nccn2c1 [N-{[4-(2H-1,3-benzodioxole-5-sulfonyl)phenyl]methyl}imidazo[1,2-a]pyridine-6-carboxamide] | 0.00533 | 0.0107 | – | –
COc1ccc(S(=O)(=O)c2ccc(CNC(=O)c3cnc4nccn4c3)cc2)cc1F [N-({4-[(3-fluoro-4-methoxybenzene)sulfonyl]phenyl}methyl)imidazo[1,2-a]pyrimidine-6-carboxamide] | 0.0083 | – | 0.0017 | –

Compound | IC50 (A2780 cells; SRB) [µM] | IC50 (NAMPT; NAMPT enzymatic assay) [µM] | IC50 (NAMPT; NAMPT enzymatic reaction) [µM] | IC50 (A2780 cells; SRB assay) [µM]
COc1ccc(C(C)C)cc1S(=O)(=O)c1ccc(CNC(=O)c2cc3cnccc3[nH]2)cc1 [N-[(4-{[2-methoxy-5-(propan-2-yl)benzene]sulfonyl}phenyl)methyl]-1H-pyrrolo[3,2-c]pyridine-2-carboxamide] | – | – | 0.061 | 0.012
CS(=O)(=O)c1ccc(S(=O)(=O)c2ccc(CNC(=O)c3cnc4[nH]ncc4c3)cc2)cc1 [N-({4-[(4-methanesulfonylbenzene)sulfonyl]phenyl}methyl)-1H-pyrazolo[3,4-b]pyridine-5-carboxamide] | 0.0238 | – | 0.0293 | –
CS(=O)(=O)c1ccccc1S(=O)(=O)c1ccc(CNC(=O)c2cc3ccncc3o2)cc1 | 0.1 to 1 | – | 0.0542 | –
Cc1cccc(S(=O)(=O)c2ccc(CNC(=O)c3cnc4[nH]ncc4c3)cc2)c1F | 0.0239 | – | 0.0197 | –
CCCOc1cccc(S(=O)(=O)c2ccc(CNC(=O)c3cnc4nccn4c3)cc2)c1 | 0.0075 | – | 0.0048 | –
O=C(NCc1ccc(S(=O)(=O)c2cc(O)ccc2OC(F)(F)F)cc1)c1cc2ccncc2o1 | 0.0115 | 0.0064 | – | –
CCCCOc1ccc(Cl)cc1S(=O)(=O)c1ccc(CNC(=O)c2cc3ccncc3s2)cc1 | 0.01 | – | 0.0073 | –
COc1c(Cl)ccc(S(=O)(=O)c2ccc(CNC(=O)c3cnc4nccn4c3)cc2)c1Cl | 0.0255 | – | 0.0066 | –
O=C(NCc1ccc(S(=O)(=O)c2cccc(C(=O)NC3CCCC3)c2)cc1)c1cnc2nccn2c1 | 0.0483 | 0.0047 | – | –
CCNC(=O)c1cccc(S(=O)(=O)c2ccc(CNC(=O)c3cnc4nccn4c3)cc2)c1 | 0.0655 | 0.0031 | – | –
COc1cccc(S(=O)(=O)c2ccc(CNC(=O)c3cnc4nccn4c3)cc2)c1 [N-({4-[(3-methoxybenzene)sulfonyl]phenyl}methyl)imidazo[1,2-a]pyrimidine-6-carboxamide] | 0.0124 | – | 0.002 | –
O=C(NCc1ccc(S(=O)(=O)c2ccccc2C(F)(F)F)cc1)c1cc2ccncc2o1 | 0.0593 | 0.0194 | – | –
COc1ccc(F)cc1S(=O)(=O)c1ccc(CNC(=O)c2ccc3nccn3c2)cc1 [N-({4-[(5-fluoro-2-methoxybenzene)sulfonyl]phenyl}methyl)imidazo[1,2-a]pyridine-6-carboxamide] | 0.00665 | – | 0.022 | –
N#Cc1ccc(S(=O)(=O)c2ccc(CNC(=O)c3cc4cnccc4[nH]3)cc2)cc1 [N-({4-[(4-cyanobenzene)sulfonyl]phenyl}methyl)-1H-pyrrolo[3,2-c]pyridine-2-carboxamide] | 0.0251 | – | 0.0111 | –
O=C(NCc1ccc(S(=O)(=O)c2cc(F)cc(OCC(F)(F)F)c2)cc1)c1cc2cnccc2[nH]1 | 0.0019 | 0.0056 | – | –
CN(C)c1ccc(S(=O)(=O)c2ccc(CNC(=O)c3cc4ccncc4o3)cc2)cn1 [N-({4-[6-(dimethylamino)pyridine-3-sulfonyl]phenyl}methyl)furo[2,3-c]pyridine-2-carboxamide] | 0.0018 | 0.003 | – | –
O=C(NCc1ccc(S(=O)(=O)c2cccc(N3CCCCC3)c2)cc1)c1cnc2[nH]ncc2c1 | 0.014 | 0.0536 | – | –
COc1cc(C)cc(S(=O)(=O)c2ccc(CNC(=O)c3ccc4nccn4c3)cc2)c1 | 0.0016 | – | 0.0053 | –
Cc1cccc(C)c1S(=O)(=O)c1ccc(CNC(=O)c2cnc3[nH]ncc3c2)cc1 [N-({4-[(2,6-dimethylbenzene)sulfonyl]phenyl}methyl)-1H-pyrazolo[3,4-b]pyridine-5-carboxamide] | 0.1 to 1 | – | 0.159 | –
CC(C)NC(=O)c1cc(S(=O)(=O)c2ccc(CNC(=O)c3cnc4nccn4c3)cc2)ccc1F | 0.0854 | 0.0077 | – | –
COc1ccc(F)c(S(=O)(=O)c2ccc(CNC(=O)c3cc4ccncc4o3)cc2)c1 | 0.0637 | – | 0.0268 | –
O=C(NCc1ccc(S(=O)(=O)c2cnc3n2CCCCC3)cc1)c1cnc2[nH]ncc2c1 [N-[(4-{5H,6H,7H,8H,9H-imidazo[1,2-a]azepine-3-sulfonyl}phenyl)methyl]-1H-pyrazolo[3,4-b]pyridine-5-carboxamide] | 0.0123 | 0.0316 | – | –
COc1cc(F)c(F)cc1S(=O)(=O)c1ccc(CNC(=O)c2ccc3nccn3c2)cc1 [N-({4-[(4,5-difluoro-2-methoxybenzene)sulfonyl]phenyl}methyl)imidazo[1,2-a]pyridine-6-carboxamide] | 0.0068 | – | 0.0281 | –
